Measurements from patent publication US7074789B2, “Kinase inhibitors” (Amgen Inc., priority 1999, dated 2006).

Legend:
Type in all cases: biochemical
Lck = target: T1, Lck (Homo sapiens, UniProt P06239); test: Kinase inhibition assay (33P transfer), Lck; settings: read-out: Lck-1
T1 construct: Kinases are expressed as either kinase domains or full length constructs; made in house
How it was run: (§1)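 Kinase domains or full-length kinases, GST- or His-tagged and expressed in E. coli or baculovirus/High Five cells, transferred 33PO4 from ATP onto plate-bound poly(Glu,Tyr) 4:1 or poly(Arg,Ser) 3:1. After incubation, plates were washed with 0.5% phosphoric acid and counted by liquid scintillation.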

Zap-70 = target: T2, Zap-70 (Homo sapiens, UniProt P43403); test: Kinase inhibition assay (33P transfer), Zap-70; settings: read-out: Zap-1
T2 construct: Kinases are expressed as either kinase domains or full length constructs; made in house
T2 sequence (P43403 1-619): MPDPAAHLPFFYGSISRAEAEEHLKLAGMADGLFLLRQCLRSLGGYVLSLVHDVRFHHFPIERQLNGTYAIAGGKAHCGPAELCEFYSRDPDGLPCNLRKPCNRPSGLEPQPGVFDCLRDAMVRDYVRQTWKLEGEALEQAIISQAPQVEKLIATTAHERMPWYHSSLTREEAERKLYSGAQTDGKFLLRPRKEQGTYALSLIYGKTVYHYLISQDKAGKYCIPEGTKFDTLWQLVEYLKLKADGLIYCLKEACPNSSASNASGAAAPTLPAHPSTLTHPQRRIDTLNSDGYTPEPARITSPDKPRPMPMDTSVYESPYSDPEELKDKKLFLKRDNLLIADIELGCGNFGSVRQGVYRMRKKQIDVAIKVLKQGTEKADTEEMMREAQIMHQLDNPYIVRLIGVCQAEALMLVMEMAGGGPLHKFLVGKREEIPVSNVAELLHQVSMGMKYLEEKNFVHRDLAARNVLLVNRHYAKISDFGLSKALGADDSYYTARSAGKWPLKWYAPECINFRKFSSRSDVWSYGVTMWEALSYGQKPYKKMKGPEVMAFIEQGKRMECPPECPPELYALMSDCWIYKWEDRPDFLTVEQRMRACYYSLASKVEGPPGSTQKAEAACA
How it was run: as §1

Itk = target: T3, Itk (Homo sapiens, UniProt Q08881); test: Kinase inhibition assay (33P transfer), Itk; settings: read-out: Itk-1
T3 construct: Kinases are expressed as either kinase domains or full length constructs; made in house
T3 sequence (Q08881 1-620): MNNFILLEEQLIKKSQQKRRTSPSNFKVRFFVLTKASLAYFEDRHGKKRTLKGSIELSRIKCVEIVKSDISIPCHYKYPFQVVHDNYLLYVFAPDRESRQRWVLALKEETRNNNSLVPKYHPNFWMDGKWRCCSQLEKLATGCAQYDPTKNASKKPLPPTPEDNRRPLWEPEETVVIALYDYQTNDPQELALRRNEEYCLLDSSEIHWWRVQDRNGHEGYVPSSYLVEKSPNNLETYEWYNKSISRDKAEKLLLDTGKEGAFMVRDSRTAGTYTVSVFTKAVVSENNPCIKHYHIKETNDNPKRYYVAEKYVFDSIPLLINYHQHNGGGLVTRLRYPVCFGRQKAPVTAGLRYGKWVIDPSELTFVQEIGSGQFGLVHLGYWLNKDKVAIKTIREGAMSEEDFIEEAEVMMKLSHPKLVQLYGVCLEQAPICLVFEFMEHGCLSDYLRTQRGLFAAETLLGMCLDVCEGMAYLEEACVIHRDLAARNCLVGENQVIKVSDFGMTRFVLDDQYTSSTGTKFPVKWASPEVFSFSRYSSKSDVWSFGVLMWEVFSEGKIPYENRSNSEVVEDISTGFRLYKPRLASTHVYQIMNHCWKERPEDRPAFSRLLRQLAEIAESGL
How it was run: (§2)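 Activity read as 33P incorporation from ATP into poly(Glu,Tyr) 4:1 or poly(Arg,Ser) 3:1 substrate bound to microtiter plates, measured by scintillation after acid washing. Enzymes were affinity-purified GST or polyHis fusions (kinase domain or full length) from E. coli or baculovirus; IC50 = 50% reduction in labelled phosphate.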

EGFR = target: T4, EGFR (Homo sapiens, UniProt P00533); test: Kinase inhibition assay (33P transfer), EGFR; settings: Table 2, kinase inhibition class; read-out: EGFR-1
T4 construct: Kinases are expressed as either kinase domains or full length constructs; made in house
How it was run: as §2

ErbB2 = target: T5, ErbB2 (Homo sapiens, UniProt P04626); test: Kinase inhibition assay (33P transfer), ErbB2; settings: read-out: ErbB2-2
T5 construct: Kinases are expressed as either kinase domains or full length constructs; made in house
How it was run: as §2

Kdr = target: T6, Kdr (Homo sapiens, UniProt P35968); test: Kinase inhibition assay (33P transfer), Kdr; settings: read-out: KDR-1
T6 construct: Kinases are expressed as either kinase domains or full length constructs; made in house
How it was run: as §1

c-Met = target: T7, c-Met (Homo sapiens, UniProt P08581); test: Kinase inhibition assay (33P transfer), c-Met; settings: Table 2, kinase inhibition class; read-out: Met-1
T7 construct: Kinases are expressed as either kinase domains or full length constructs; made in house
How it was run: as §2

AKT = target: T8, AKT (Homo sapiens, UniProt Q9Y243); test: Kinase inhibition assay (33P transfer), AKT; settings: Table 2, kinase inhibition class; read-out: AKT3-1
T8 construct: Kinases are expressed as either kinase domains or full length constructs; made in house
How it was run: as §1

IGFR-1 = target: T9, IGFR-1 (Homo sapiens, UniProt P08069); test: Kinase inhibition assay, IGFR-1 (Table 2); settings: Table 2, kinase inhibition class
T9 construct: Kinases are expressed as either kinase domains or full length constructs; made in house

PDGFRB = target: T10, PDGFRB (Homo sapiens, UniProt P09619); test: Kinase inhibition assay (33P transfer), PDGFRB; settings: read-out: PDGFRB-1
T10 construct: Kinases are expressed as either kinase domains or full length constructs; made in house
T10 sequence (P09619 33-1106, species assumed): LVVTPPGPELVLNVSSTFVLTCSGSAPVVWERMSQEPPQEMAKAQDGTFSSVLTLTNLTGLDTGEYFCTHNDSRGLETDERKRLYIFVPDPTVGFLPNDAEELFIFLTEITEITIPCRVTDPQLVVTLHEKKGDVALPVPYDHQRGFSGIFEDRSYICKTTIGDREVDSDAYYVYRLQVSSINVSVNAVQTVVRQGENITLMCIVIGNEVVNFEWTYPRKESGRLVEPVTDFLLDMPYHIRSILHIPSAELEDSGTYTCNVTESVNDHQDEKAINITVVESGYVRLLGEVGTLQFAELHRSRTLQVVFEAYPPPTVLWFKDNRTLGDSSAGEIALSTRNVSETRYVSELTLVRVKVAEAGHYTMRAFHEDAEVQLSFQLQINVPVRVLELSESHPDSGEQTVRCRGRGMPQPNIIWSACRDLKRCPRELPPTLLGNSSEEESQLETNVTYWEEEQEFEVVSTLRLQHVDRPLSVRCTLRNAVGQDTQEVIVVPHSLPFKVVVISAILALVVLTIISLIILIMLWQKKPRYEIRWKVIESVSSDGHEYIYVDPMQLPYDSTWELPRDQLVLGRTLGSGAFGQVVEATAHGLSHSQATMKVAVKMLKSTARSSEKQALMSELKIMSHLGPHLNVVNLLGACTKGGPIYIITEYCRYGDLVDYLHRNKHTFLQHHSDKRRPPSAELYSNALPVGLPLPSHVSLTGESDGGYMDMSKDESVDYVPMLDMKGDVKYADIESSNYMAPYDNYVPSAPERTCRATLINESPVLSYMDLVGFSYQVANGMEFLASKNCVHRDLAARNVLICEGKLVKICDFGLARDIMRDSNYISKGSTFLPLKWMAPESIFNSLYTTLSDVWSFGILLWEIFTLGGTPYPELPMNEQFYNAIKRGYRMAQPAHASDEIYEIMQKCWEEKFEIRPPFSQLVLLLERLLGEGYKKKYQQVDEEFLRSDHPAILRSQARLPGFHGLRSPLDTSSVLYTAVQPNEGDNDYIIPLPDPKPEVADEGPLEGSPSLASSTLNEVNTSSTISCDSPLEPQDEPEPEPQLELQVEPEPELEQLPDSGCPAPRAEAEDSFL

T8 sequence (Q9Y243 whole entry, the tested form may be a part): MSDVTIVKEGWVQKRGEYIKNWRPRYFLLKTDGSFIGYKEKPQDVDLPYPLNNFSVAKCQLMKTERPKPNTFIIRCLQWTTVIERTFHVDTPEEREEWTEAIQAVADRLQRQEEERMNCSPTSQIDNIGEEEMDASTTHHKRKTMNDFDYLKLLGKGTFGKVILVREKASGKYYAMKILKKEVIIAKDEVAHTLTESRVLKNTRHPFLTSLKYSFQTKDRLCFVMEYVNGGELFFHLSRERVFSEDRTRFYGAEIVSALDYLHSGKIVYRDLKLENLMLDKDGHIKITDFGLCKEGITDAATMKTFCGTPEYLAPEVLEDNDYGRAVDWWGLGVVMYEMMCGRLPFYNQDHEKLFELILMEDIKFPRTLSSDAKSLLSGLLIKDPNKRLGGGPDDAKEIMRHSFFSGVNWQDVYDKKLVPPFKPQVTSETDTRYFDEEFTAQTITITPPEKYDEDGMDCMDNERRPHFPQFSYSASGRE
T5 sequence (P04626 23-1255, species assumed): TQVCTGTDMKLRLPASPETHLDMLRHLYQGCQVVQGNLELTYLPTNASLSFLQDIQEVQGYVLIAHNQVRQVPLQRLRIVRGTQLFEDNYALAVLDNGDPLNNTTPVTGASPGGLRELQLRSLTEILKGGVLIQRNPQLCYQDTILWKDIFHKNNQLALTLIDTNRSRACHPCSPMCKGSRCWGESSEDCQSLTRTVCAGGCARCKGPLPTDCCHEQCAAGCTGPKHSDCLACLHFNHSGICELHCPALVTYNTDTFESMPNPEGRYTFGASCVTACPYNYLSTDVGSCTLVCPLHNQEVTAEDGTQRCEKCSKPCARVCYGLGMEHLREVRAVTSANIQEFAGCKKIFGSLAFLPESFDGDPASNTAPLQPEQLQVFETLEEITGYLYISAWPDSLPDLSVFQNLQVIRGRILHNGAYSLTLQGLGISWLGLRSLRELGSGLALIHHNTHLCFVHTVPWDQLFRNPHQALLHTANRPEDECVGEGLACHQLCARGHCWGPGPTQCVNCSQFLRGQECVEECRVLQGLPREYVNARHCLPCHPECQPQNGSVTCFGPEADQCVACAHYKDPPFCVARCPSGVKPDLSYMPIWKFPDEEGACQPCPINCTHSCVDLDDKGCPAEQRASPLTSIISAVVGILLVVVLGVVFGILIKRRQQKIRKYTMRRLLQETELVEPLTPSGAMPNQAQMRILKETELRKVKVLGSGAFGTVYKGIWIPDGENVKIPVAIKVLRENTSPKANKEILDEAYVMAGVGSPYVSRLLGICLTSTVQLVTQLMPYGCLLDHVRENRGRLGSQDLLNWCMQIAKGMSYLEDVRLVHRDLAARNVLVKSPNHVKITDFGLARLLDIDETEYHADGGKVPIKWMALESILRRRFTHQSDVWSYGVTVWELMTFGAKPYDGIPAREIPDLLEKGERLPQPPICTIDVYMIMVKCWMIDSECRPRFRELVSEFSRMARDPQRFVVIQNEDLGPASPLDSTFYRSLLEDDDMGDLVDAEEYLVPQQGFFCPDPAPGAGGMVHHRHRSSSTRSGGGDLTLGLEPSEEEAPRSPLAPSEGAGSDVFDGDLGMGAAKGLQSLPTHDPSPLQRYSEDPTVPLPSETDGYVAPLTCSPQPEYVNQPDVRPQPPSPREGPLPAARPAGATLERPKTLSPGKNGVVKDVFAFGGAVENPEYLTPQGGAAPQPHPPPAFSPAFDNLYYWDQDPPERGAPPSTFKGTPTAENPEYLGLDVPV
T7 sequence (P08581 25-1390): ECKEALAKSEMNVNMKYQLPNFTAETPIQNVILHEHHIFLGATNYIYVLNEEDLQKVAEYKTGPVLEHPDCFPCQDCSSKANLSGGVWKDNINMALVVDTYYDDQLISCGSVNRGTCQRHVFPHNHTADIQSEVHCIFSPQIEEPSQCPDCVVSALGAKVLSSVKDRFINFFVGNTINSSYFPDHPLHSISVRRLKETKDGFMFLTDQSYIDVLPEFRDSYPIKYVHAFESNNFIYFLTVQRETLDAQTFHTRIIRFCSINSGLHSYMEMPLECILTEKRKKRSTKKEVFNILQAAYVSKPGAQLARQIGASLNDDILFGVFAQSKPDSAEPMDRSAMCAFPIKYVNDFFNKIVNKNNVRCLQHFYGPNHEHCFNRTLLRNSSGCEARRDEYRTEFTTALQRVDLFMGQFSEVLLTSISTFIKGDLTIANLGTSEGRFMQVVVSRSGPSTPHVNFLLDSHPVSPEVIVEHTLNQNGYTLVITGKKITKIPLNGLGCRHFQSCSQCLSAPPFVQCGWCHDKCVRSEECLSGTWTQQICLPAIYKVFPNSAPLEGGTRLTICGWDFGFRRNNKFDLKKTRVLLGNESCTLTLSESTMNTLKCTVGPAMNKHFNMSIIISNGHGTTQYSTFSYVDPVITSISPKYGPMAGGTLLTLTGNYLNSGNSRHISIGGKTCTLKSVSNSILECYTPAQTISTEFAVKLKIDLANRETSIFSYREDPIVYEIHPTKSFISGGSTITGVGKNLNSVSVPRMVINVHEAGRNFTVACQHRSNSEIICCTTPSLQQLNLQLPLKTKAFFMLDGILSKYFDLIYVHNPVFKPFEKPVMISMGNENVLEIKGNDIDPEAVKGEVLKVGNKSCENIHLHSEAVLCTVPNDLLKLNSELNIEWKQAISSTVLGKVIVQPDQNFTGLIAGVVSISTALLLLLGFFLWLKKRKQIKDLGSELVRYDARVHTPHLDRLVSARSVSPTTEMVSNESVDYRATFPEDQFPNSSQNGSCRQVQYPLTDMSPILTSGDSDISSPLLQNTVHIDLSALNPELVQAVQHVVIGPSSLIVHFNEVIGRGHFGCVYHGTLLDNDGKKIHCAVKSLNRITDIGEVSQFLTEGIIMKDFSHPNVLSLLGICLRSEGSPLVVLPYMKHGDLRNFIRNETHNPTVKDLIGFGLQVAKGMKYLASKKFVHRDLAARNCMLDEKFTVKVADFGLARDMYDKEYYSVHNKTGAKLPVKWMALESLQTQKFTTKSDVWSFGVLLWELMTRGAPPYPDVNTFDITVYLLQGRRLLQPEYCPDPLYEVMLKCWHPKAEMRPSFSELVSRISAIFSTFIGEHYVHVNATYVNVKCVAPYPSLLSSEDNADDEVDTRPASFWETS
T1 sequence (P06239 whole entry, species assumed, the tested form may be a part): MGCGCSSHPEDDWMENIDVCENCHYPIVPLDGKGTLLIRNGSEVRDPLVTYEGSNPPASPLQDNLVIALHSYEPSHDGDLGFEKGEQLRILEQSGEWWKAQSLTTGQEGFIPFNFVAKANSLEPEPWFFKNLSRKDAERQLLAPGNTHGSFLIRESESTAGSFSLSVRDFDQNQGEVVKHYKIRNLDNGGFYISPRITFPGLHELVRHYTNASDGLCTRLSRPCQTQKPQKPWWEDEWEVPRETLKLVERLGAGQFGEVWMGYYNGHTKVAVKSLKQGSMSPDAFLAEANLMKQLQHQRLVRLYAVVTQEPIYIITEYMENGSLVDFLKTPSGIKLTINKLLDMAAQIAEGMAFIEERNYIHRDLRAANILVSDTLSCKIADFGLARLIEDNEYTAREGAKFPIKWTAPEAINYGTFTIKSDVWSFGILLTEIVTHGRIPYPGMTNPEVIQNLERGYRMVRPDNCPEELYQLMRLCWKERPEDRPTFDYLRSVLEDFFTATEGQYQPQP

Row | IC50 (Lck) [µM] | IC50 (Zap-70) [µM] | IC50 (Itk) [µM] | IC50 (EGFR) [µM] | IC50 (ErbB2) [µM] | IC50 (Kdr) [µM] | IC50 (c-Met) [µM] | IC50 (AKT) [µM] | IC50 (IGFR-1) [µM] | IC50 (PDGFRB) [µM] | Compound
1 | 1.08 to 6.45 | > 12.1 | > 12.1 | < 1.08 | < 1.08 | 1.08 to 6.45 | 1.08 to 6.45 | > 12.1 | > 12.1 | 1.08 to 6.45 | COc1cc(Nc2ncnc(N(C)c3cccc(Cl)c3)n2)cc(OC)c1 [Compound 712]
2 | > 11.8 | > 11.8 | > 11.8 | 1.05 to 6.32 | > 11.8 | > 11.8 | > 11.8 | > 11.8 | > 11.8 | > 11.8 | CN(c1cccc(Cl)c1)c1ncnc(Nc2ccc(C(F)(F)F)cc2)n1 [Compound 744]
3 | 0.804 to 4.82 | > 9.04 | > 9.04 | < 0.804 | 0.804 to 4.82 | < 0.804 | > 9.04 | > 9.04 | > 9.04 | 7.03 to 9.04 | CCc1ccc(Nc2nc3ccccc3n2-c2ncnc(Nc3cc(OC)c(OC)c(OC)c3)n2)cc1 [Compound 1048]
4 | 6.53 to 9.53 | > 12.2 | > 12.2 | 9.53 to 12.2 | > 12.2 | > 12.2 | > 12.2 | > 12.2 | > 12.2 | 9.53 to 12.2 | COc1ccc(Nc2ncnc(NCC(O)c3ccccc3)n2)cc1OC (stereo not shown) [Compound 780]
5 | < 1.04 | 6.21 to 9.06 | 1.04 to 6.21 | 1.04 to 6.21 | 6.21 to 9.06 | < 1.04 | 1.04 to 6.21 | 6.21 to 9.06 | < 1.04 | 1.04 to 6.21 | NC(=O)Cc1ccc(Nc2ncnc(Nc3cc(-c4ccccc4)n[nH]3)n2)cc1 [Compound 573]
6 | < 1.04 | > 11.6 | < 1.04 | < 1.04 | 1.04 to 6.21 | < 1.04 | < 1.04 | > 11.6 | < 1.04 | 1.04 to 6.21 | NC(=O)Cc1cccc(Nc2ncnc(Nc3cc(-c4ccccc4)n[nH]3)n2)c1 [Compound 578]
7 | > 9.77 | > 9.77 | > 9.77 | > 9.77 | > 9.77 | > 9.77 | > 9.77 | > 9.77 | > 9.77 | > 9.77 | COc1cc(Nc2ncnc(Oc3ccc(OCc4ccccc4)cc3)n2)cc(OC)c1OC [Compound 530]
8 | 5.51 to 8.04 | 0.919 to 5.51 | 0.919 to 5.51 | < 0.919 | 0.919 to 5.51 | 0.919 to 5.51 | 0.919 to 5.51 | 5.51 to 8.04 | 0.919 to 5.51 | 0.919 to 5.51 | CC(=O)c1ccc(Nc2ncnc(Nc3ccc4c(cnn4Cc4ccccc4)c3)n2)cc1 [Compound 730]
9 | 1.05 to 6.29 | > 11.8 | > 11.8 | < 1.05 | 1.05 to 6.29 | < 1.05 | < 1.05 | > 11.8 | 1.05 to 6.29 | 1.05 to 6.29 | CCN(c1ccccc1)c1ncnc(Nc2cc(OC)c(OC)c(OC)c2)n1 [Compound 536]
10 | 0.815 to 4.89 | > 9.17 | > 9.17 | 4.89 to 7.13 | 0.815 to 4.89 | < 0.815 | > 9.17 | > 9.17 | > 9.17 | < 0.815 | COc1cc(Nc2ncnc(-n3c(NCc4nccs4)nc4ccccc43)n2)cc(OC)c1OC [Compound 549]
11 | 1.16 to 6.98 | > 13.1 | 1.16 to 6.98 | < 1.16 | 1.16 to 6.98 | 1.16 to 6.98 | 1.16 to 6.98 | > 13.1 | < 1.16 | > 13.1 | CC(C)(C)c1cc(Nc2ncnc(Nc3cccc(Cl)c3)n2)[nH]n1 [Compound 1007]
12 | 7.37 to 10.7 | > 13.8 | > 13.8 | < 1.23 | 1.23 to 7.37 | > 13.8 | 1.23 to 7.37 | > 13.8 | > 13.8 | 7.37 to 10.7 | Cc1cccc(Nc2ncnc(N(C)c3cccc(Cl)c3)n2)c1 [Compound 709]
13 | > 11.7 | > 11.7 | > 11.7 | > 11.7 | 9.1 to 11.7 | 9.1 to 11.7 | 6.24 to 9.1 | > 11.7 | > 11.7 | > 11.7 | Cc1ccc2c(c1)CCCN2c1ncnc(NCCc2c[nH]c3ccccc23)n1 [Compound 768]
14 | > 13 | > 13 | > 13 | 6.92 to 10.1 | > 13 | > 13 | > 13 | > 13 | > 13 | > 13 | CN(c1cccc(Cl)c1)c1ncnc(NCCN2CCCCC2)n1 [Compound 740]
15 | 4.67 to 6.82 | 4.67 to 6.82 | > 8.76 | > 8.76 | 6.82 to 8.76 | < 0.779 | 4.67 to 6.82 | > 8.76 | > 8.76 | 0.779 to 4.67 | COc1ccc(Nc2nc3ccccc3n2-c2ncnc(Nc3cc(OC)c(OC)c(OC)c3)n2)c(C)c1 [Compound 558]
16 | 1.11 to 6.68 | > 12.5 | 1.11 to 6.68 | 1.11 to 6.68 | 1.11 to 6.68 | 1.11 to 6.68 | 1.11 to 6.68 | 1.11 to 6.68 | < 1.11 | 1.11 to 6.68 | COc1cccc(Nc2ncnc(Nc3cc(-c4ccccc4)n[nH]3)n2)c1 [Compound 1011]
17 | < 0.737 | > 8.29 | > 8.29 | < 0.737 | 4.42 to 6.45 | 4.42 to 6.45 | > 8.29 | > 8.29 | 4.42 to 6.45 | 4.42 to 6.45 | COc1cc(Nc2ncnc(Nc3cc(OC)c(OCCN4CCOCC4)c(OC)c3)n2)cc(OC)c1OC [Compound 562]
18 | 0.937 to 5.62 | > 10.5 | > 10.5 | < 0.937 | 5.62 to 8.2 | > 10.5 | 5.62 to 8.2 | > 10.5 | > 10.5 | > 10.5 | CN(c1cccc(Cl)c1)c1ncnc(Nc2ccc(NC(=O)OC(C)(C)C)cc2)n1 [Compound 750]
19 | 0.886 to 5.32 | > 9.97 | > 9.97 | < 0.886 | < 0.886 | < 0.886 | 7.75 to 9.97 | > 9.97 | > 9.97 | < 0.886 | O=C(O)Cc1cccc(Nc2ncnc(-n3c(NCc4ccccc4)nc4ccccc43)n2)c1 [Compound 531]
